The structures appear in SMILES notation. A value given as a limit tells only on which side of the number the result lay.

For orientation: IC50 means the concentration needed to halve the response being measured.

The experiment has as its target T1, Polθ polymerase domain (amino acids 1792-2590) (Homo sapiens, UniProt O75417).
T1 construct: 10×Histidine-SUMO (N, cleaved yes); made in house; host or cells: E. coli
T1 sequence (O75417 1792-2590): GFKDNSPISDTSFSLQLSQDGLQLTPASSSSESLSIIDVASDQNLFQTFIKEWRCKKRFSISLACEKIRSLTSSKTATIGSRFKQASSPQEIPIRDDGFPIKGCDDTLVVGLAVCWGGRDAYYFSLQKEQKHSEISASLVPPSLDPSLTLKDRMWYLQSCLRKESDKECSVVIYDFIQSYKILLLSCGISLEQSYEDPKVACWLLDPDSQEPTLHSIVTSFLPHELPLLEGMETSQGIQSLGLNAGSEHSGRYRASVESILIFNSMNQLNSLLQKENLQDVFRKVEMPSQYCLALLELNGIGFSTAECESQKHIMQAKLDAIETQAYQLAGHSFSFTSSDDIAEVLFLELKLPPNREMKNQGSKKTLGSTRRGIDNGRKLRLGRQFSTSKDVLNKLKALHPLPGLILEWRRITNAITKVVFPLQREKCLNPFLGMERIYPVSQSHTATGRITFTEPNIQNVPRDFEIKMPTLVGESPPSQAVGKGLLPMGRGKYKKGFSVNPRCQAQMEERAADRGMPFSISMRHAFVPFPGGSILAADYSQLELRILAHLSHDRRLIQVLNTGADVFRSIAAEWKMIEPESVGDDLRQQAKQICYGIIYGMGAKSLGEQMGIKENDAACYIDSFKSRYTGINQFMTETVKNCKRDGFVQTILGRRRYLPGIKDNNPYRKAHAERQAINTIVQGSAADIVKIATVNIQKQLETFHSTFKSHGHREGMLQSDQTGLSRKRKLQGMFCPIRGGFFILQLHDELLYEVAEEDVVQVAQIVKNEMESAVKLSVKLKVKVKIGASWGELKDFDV
Kind of experiment: Picogreen assay of Polθ polymerase activity. It counts as biochemical. The note with it: 12-point concentration response, 90 minutes incubation at room temperature, 8 nM Polθ in 2×polymerase mixture, read-out: PolQ IC50. From the text: The DNA sequence of the polQ gene (Genebank ID #NM 199420.4) was chemically synthesized. The DNA sequence encoding the polymerase domain (amino acids 1792-2590) was subcloned into an E. coli expression plasmid, resulting in the fusion of 10×Histidine-SUMO tag at the N terminus of the polymerase domain.
The protein was expressed in E. coli. and purified using a 2-step IMAC (immobilized metal chelate affinity chromatography) procedure. Briefly stated, the overexpressed E. coli lysate was subjected to Ni-NTA purification, and an N-terminal tag was digested by a SUMO protease. Then, the excised fragment of 10×Histidine-SUMO tag was removed using Ni-NTA beads. The resulting protein was used for the Picogreen assay, as described below.
The methods of DNA complex preparation were slightly modified from the protocol previously reported (Zatreanu et al., 2021, Nature Communications, 12:3636). Briefly stated, polθ substrate was prepared by mixing Oligo1 (5′-GCG GCT GTC ATA AG-3′) and Oligo2 (5′-GCTACATTGACAATGGCATCAAATCTCAGATTGCGTCTTATGACAGCCGCG-3′) in an annealing buffer (20 mM Tris-Cl, pH 7.5, 50 mM NaCl) to the final concentration of 22 uM and 20 uM, respectively. The Polθ product was prepared by mixing Oligo3 (5′-CGCGGCTGTCATAAGACGCAATCTGAGATTTGATGCCATTGTCAATGTAGC-3′) and Oligo2 (5′-GCTACATTGACAATGGCATCAAATCTCAGATTGCGTCTTATGACAGCCGCG-3′) to the final concentration of 20 uM. The polθ product was used for the top signal control in the Picogreen assay. Both substrate and product were heated to 95° C. […] and cooled slowly to room temperature.
To evaluate the ability of test compounds to inhibit the activity of polθ in vitro, a Picogreen assay was performed to measure polθ IC50 (nM).
The reactions were performed at room temperature in an assay buffer (25 mM Tris-HCl, pH 7.5, 12.5 mM NaCl, 0.5 mM MgCl2, 5% (v/v) glycerol, 0.01% (v/v) Triton X-100, 0.01% (w/v) Bovine serum albumin, 1 mM DTT). Thirty microliters of 2×polymerase mixture (8 nM Polθ enzyme in an assay buffer) were distributed to 96 well plates, test compounds were prepared by dilution in 100% DMSO to obtain the correct dose range for a 12-point concentration response and 1 μl was dispensed into each well, and then 30 microliters of 2×substrate mix (100 nM DNA and 40 uM dNTPs in an assay buffer) was added. After 90 minutes of incubation, the reaction was stopped and DNA was stained by adding 40 microliters of Picogreen solution (1:80 dilution of Picogreen, Invitrogen, Cat #P7581, 25 mM Tris-HCl, pH 7.5, 10 mM EDTA, pH 7.5).
The fluorescence intensity was measured at excitation/emission=485 nm/520 nm using an Ensight plate reader (Perkin Elmer). The data was analyzed by GraphPad Prism software (Version 8.4.3) to calculate IC50.
Consider `Cc1cc(C(F)(F)F)cc(N2[C@H](C(=O)N(CC#Cc3cnc(N4CCOCC4)c(N)n3)c3ccc(F)c(C)c3)CCS2(=O)=O)n1` [compound 44], for which the IC50 was in the range of 1 to 50 nM.

As to `Cc1cc(C(F)(F)F)cc(N2[C@H](C(=O)N(CC#Cc3cncc(N4CCOCC4)n3)c3ccc(F)c(C)c3)CCS2(=O)=O)n1` [compound 42], the IC50 is 1 to 50 nM.

Turning to `Cc1cc(C(F)(F)F)cc(N2[C@H](C(=O)N(CC#Cc3cccc(=O)n3C)c3ccc(F)c(C)c3)CCS2(=O)=O)n1` [compound 92], the IC50 lay in the range of 1 to 50 nM.

With `Cc1cc(N(CC#Cc2cnc(N3CCOCC3)cn2)C(=O)[C@@H]2CCS(=O)(=O)N2c2cc(C(F)(F)F)cc(C(F)(F)F)n2)ccc1F` [compound 125], the IC50 lay in the range of 1 to 50 nM.

Consider `Cc1cc(C(F)(F)F)cc(N2[C@H](C(=O)N(CC#Cc3cnc(NC(C)C)cn3)c3ccc(F)c(C)c3)CCS2(=O)=O)n1` [compound 36], for which the 50% inhibitory concentration (IC50) lay within 1 to 50 nM.

For `Cc1cc(C(F)(F)F)cc(N2[C@H](C(=O)N(CC#Cc3ccc(F)cn3)c3ccc(F)c(C)c3)CCS2(=O)=O)n1` [compound 93], the 50% inhibitory concentration (IC50) was in the range of 1 to 50 nM.

With `Cc1cc(C(F)(F)F)cc(N2[C@H](C(=O)N(CC#Cc3cnc(N)cn3)c3ccc(F)c(C)c3F)CCS2(=O)=O)n1` [compound 17], the IC50 fell in the range of 1 to 50 nM.

Consider `Cc1cc(C(F)(F)F)cc(N2[C@H](C(=O)N(CC#Cc3cnc(N4C[C@H](C)N(C(C)C)[C@@H](C)C4)cn3)c3ccc(F)c(C)c3)CCS2(=O)=O)n1` [compound 53], for which the IC50 was in the range of 1 to 50 nM.

With `Cc1cc(C(F)(F)F)cc(N2[C@H](C(=O)N(CC#Cc3cc(F)c(C(N)=O)cn3)c3ccc(F)c(C)c3)CCS2(=O)=O)n1` [compound 122], the IC50 lay within 1 to 50 nM.

With `Cc1cc(C(F)(F)F)cc(N2[C@H](C(=O)N(CC#Cc3cncn3C)c3ccc(F)c(C)c3)CCS2(=O)=O)n1` [compound 102], the 50% inhibitory concentration (IC50) was 1 to 50 nM.

As for `Cc1cc(C(F)(F)F)cc(N2[C@H](C(=O)N(CC#Cc3ccc(Cn4cc5cccc(C(N)=O)c5n4)nc3)c3ccc(F)c(C)c3)CCS2(=O)=O)n1` [compound 136], the IC50 was 1 to 50 nM.

Turning to `Cc1cc(C(F)(F)F)cc(N2[C@H](C(=O)N(CC#Cc3cccc(C(N)=O)c3)c3ccc(F)c(C)c3)CCS2(=O)=O)n1` [compound 106], the concentration for half-maximal inhibition (IC50) lay within 1 to 50 nM.

As for `Cc1cc(C(F)(F)F)cc(N2[C@H](C(=O)N(CC#Cc3cnc(NC(N)=O)cn3)c3ccc(F)c(C)c3)CCS2(=O)=O)n1` [compound 35], the IC50 was in the range of 1 to 50 nM.

With `Cc1cc(C(F)(F)F)cc(N2[C@H](C(=O)N(CC#Cc3n[nH]c(=O)c4ccccc34)c3ccc(F)c(C)c3)CCS2(=O)=O)n1` [compound 101], the IC50 was 51 to 100 nM.

Regarding `Cc1cc(C(F)(F)F)cc(N2[C@H](C(=O)N(CC#Cc3cnc(C(N)=O)c(F)c3)c3ccc(F)c(C)c3)CCS2(=O)=O)n1` [compound 96], the half-inhibitory concentration (IC50) lay in the range of 1 to 50 nM.

`C=CC(=O)Nc1ccc(C#CCN(C(=O)[C@@H]2CCS(=O)(=O)N2c2cc(C(F)(F)F)cc(C)n2)c2ccc(F)c(C)c2)nn1` [compound 129]: the IC50 is 1 to 50 nM.

Take `CC(=O)Nc1ccc(C#CCN(C(=O)[C@@H]2CCS(=O)(=O)N2c2cc(C(F)(F)F)cc(C)n2)c2ccc(F)c(C)c2)nn1` [compound 22]: the IC50 was in the range of 1 to 50 nM.

For the compound `Cc1cc(C(F)(F)F)cc(N2[C@H](C(=O)N(CC#Cc3cncc(C(N)=O)n3)c3ccc(F)c(C)c3)CCS2(=O)=O)n1` [compound 63], the IC50 fell in the range of 1 to 50 nM.

For the compound `Cc1cc(C(F)(F)F)cc(N2[C@H](C(=O)N(CC#Cc3ccc(NC(C)C)nn3)c3ccc(F)c(C)c3F)CCS2(=O)=O)n1` [compound 21], the IC50 fell in the range of 1 to 50 nM.

As for `CCN1CCN(CC#CCN(C(=O)[C@@H]2CCC(=O)N2c2cc(C(F)(F)F)cc(C)n2)c2ccc(F)c(C)c2F)CC1` [compound 13], the half-inhibitory concentration (IC50) was 1 to 50 nM.

For `Cc1cc(C(F)(F)F)cc(N2[C@H](C(=O)N(CC#Cc3cncc(C(=O)N4CC5CCC(C4)N5)n3)c3ccc(F)c(C)c3)CCS2(=O)=O)n1` [compound 73], the IC50 fell in the range of 1 to 50 nM.

Regarding `Cc1cc(C(F)(F)F)cc(N2[C@H](C(=O)N(CC#Cc3cnc(N4CC5CCC(C4)O5)cn3)c3ccc(F)c(C)c3)CCS2(=O)=O)n1` [compound 48], the IC50 lay within 1 to 50 nM.

In the case of `Cc1cc(C(F)(F)F)cc(N2[C@H](C(=O)N(CC#Cc3ccc(C(N)=O)nc3)c3ccc(F)c(C)c3)CCS2(=O)=O)n1` [compound 95], the IC50 fell in the range of 1 to 50 nM.

Turning to `Cc1cc(C(F)(F)F)cc(N2[C@H](C(=O)N(CC#Cc3cccc(C(N)=O)n3)c3ccc(F)c(C)c3)CCS2(=O)=O)n1` [compound 120], the 50% inhibitory concentration (IC50) fell in the range of 1 to 50 nM.

`Cc1cc(C(F)(F)F)cc(N2[C@H](C(=O)N(CC#Cc3ccc(N4CCOCC4)nc3)c3ccc(F)c(C)c3)CCS2(=O)=O)n1` [compound 85]: the IC50 is 1 to 50 nM.

In the case of `Cc1cc(C(F)(F)F)cc(N2[C@H](C(=O)N(CC#Cc3cc(N4CCOCC4)nc(C(F)(F)F)n3)c3ccc(F)c(C)c3)CCS2(=O)=O)n1` [compound 76], the IC50 lay in the range of 51 to 100 nM.

Turning to `Cc1cc(C(F)(F)F)cc(N2[C@H](C(=O)N(CC#Cc3cnc(N4C[C@@H](C)O[C@@H](C)C4)cn3)c3ccc(F)c(C)c3)CCS2(=O)=O)n1` [compound 47], the half-inhibitory concentration (IC50) is 1 to 50 nM.

As to `Cc1cc(C(F)(F)F)cc(N2C(=O)CC[C@H]2C(=O)N(CC#Cc2ccc(F)cn2)c2ccc(F)c(C)c2)n1` [compound 8], the IC50 lay in the range of 1 to 50 nM.

Consider `Cc1cc(C(F)(F)F)cc(N2[C@H](C(=O)N(CC#Cc3cnc(C(N)=O)c(C)n3)c3ccc(F)c(C)c3)CCS2(=O)=O)n1` [compound 62], for which the half-maximal inhibitory concentration (IC50) was in the range of 1 to 50 nM.

Take `Cc1cc(C(F)(F)F)cc(N2[C@H](C(=O)N(CC#Cc3ncc(C(N)=O)nn3)c3ccc(F)c(C)c3)CCS2(=O)=O)n1` [compound 124]: the half-maximal inhibitory concentration (IC50) lay within 1 to 50 nM.

Turning to `Cc1cc(C(F)(F)F)cc(N2[C@H](C(=O)N(CC#Cc3ccc(N4CCOCC4)cn3)c3ccc(F)c(C)c3)CCS2(=O)=O)n1` [compound 84], the IC50 fell in the range of 1 to 50 nM.

As to `Cc1cc(C(F)(F)F)cc(N2[C@H](C(=O)N(CC#Cc3cnc(N4CCOCC4)nc3)c3ccc(F)c(C)c3)CCS2(=O)=O)n1` [compound 77], the IC50 fell in the range of 1 to 50 nM.

For the compound `Cc1cc(C(F)(F)F)cc(N2[C@H](C(=O)N(CC#Cc3ccc(Cc4cccc5c(=O)[nH]cnc45)nc3)c3ccc(F)c(C)c3)CCS2(=O)=O)n1` [compound 135], the concentration for half-maximal inhibition (IC50) was 1 to 50 nM.

On to `Cc1cc(C(F)(F)F)cc(N2[C@H](C(=O)N(CC#Cc3ccc(C(N)=O)nn3)c3ccc(F)c(C)c3)CCS2(=O)=O)n1` [compound 29], for which the IC50 lay in the range of 1 to 50 nM.

`Cc1cc(C(F)(F)F)cc(N2[C@H](C(=O)N(CC#Cc3ccc(NC(C)C)nn3)c3ccc(F)c(C)c3)CCS2(=O)=O)n1` [compound 20]: the IC50 lay in the range of 1 to 50 nM.

As for `Cc1cc(C(F)(F)F)cc(N2[C@@H](C(=O)N(CC#Cc3cnc(N)cn3)c3ccc(F)c(C)c3F)CCS2(=O)=O)n1` [compound 31], the IC50 was > 101 nM.

Values taken from US20260297083A1, “SUBSTITUTED ACETYLENE COMPOUND DERIVATIVES AND THEIR PHARMACEUTICAL USE” (AVELOS THERAPEUTICS INC., priority 2023, published 2026).
